Reference: patent publication US12084698B2, “Virus-like particles and use thereof” (priority 2018, dated 2024)

Experiments:
[1] = system: EGxxFP reporter construct in HEK293T EGxxFP cells; test: SSA-EGFP (EGxxFP) reporter experiment, flow cytometry of GFP-positive cells; format: cell-based, human; settings: VLPs prepared at 0, 3, 30, 300 nM AP21967; 5×10^4 cells; 3 days
Procedure: The HEK293T EGxxFP cells were seeded on a 48-well plate at 2.5×10^4 to 5.0×10^4 cells/well. On the next day, the VLP solution was added thereto, and then after 3 days, the fluorescence of EGFP was analyzed using an LSR3 flow cytometer.
FIG. 2 is a schematic view illustrating an SSA-EGFP (hereinafter, called “EGxxFP” in some cases) reporter experiment. As cells, HEK293T cells were used which constantly express sgRNA targeting the human Dystrophin (DMD) gene and have genome into which the EGxxFP reporter construct (SEQ ID NO: 21) was inserted. The EGxxFP reporter construct is a construct designed by inserting a sequence including the target sequence of the sgRNA into the EGFP cDNA sequence, so that a functional EGFP protein is not expressed.
Then, the cleaved EGFP cDNA is repaired by single-strand annealing (SSA). As a result, functional EGFP is expressed, and the fluorescence of EGFP can be observed. In this experimental system, by quantifying the fluorescence of EGFP in the cells by using a flow cytometer, it is possible to evaluate the target gene cleavage efficiency (genome editing efficiency) of the Cas9 protein in cell populations.
Then, the prepared VLPs (15 μL) were introduced into the HEK293T EGxxFP reporter cells (5×10^4 cells expressing sgRNA). Subsequently, after 3 days, the proportion of GFP-positive cells was analyzed with a flow cytometer.

[2] = system: DNA (700 bp) including a dystrophin target sequence; test: In vitro DNA cleavage activity of VLP lysate; format: biochemical, human; settings: VLPs prepared in presence or absence of AP21967
Procedure: Thereafter, in order to test the amount of the Cas9 protein contained in VLPs, in vitro DNA cleavage activity was measured. Specifically, Lysis buffer was added to each of the concentrated VLPs, and the mixture was left to stand on ice for 10 minutes so that the VLPs were lysed.
After the reaction, in order to remove sgRNA, RNase A was added thereto and reacted at 37° C. for 30 minutes. Furthermore, in order to remove proteins, proteinase K was added thereto and reacted at 50° C. for 20 minutes.
Then, these samples were subjected to electrophoresis using 2200 TapeStation (high sensitivity D1000 TapeScreen, Agilent Technologies, Inc.), and the proportion of cleaved DNA including the dystrophin target sequence was measured.

DMD gene = test: T7EI assay in HEK293T EGxxFP cells expressing sgRNA DMD #1; format: cell-based, human; settings: VLPs prepared in presence or absence of AP21967
Procedure: By using MonoFas Genomic DNA Extraction kit (GL Sciences Inc.), genomic DNA was recovered from the cultured cells according to the protocol. Then, PCR was performed using 100 ng of the genomic DNA, primers for the regions to be amplified, and PrimeSTAR GXL DNA Polymerase (Takara Bio Inc.), and the PCR product was purified using Wizard SV Gel and PCR Clean-up System (Promega Corporation).
Subsequently, 400 ng of the PCR product was thermally denatured in NEBuffer 2.1 (New England Biolabs) at 95° C. for 5 minutes and then reannealed by slow cooling. The PCR product was cooled to 85° C. from 95° C. at −2° C./sec and then to 25° C. from 85° C. at −0.1° C./sec. Subsequently, 10 units of T7 endonuclease I (T7EI) enzyme was added thereto and reacted at 37° C. for 15 minutes. Thereafter, 6 mM of EDTA was added thereto so that the reaction stopped. Then, the cleavage products were analyzed using DS1000 High Sensitivity Screen Tape and Tape Station 2200 (Agilent Technologies, Inc.).
Then, the cleavage activity for the target DMD gene on the genome was measured by T7EI assay.
After 3 days, genomic DNA was extracted from each of the cells. Subsequently, the target region of the DMD gene on the genome was amplified by PCR. Thereafter, the PCR product was purified using columns, and by using 400 ng of the obtained DNA, mutation introduction efficiency was measured by T7EI assay.

HIV protease = HIV protease (Human immunodeficiency virus type 1 group M subtype B, UniProt P04585); settings: Darunavir added to cells in preparing VLPs
Procedure: First, in the presence or absence of Darunavir (HIV protease inhibitor), VLPs (FIGS. 1(a) and 1(b)) were prepared which were constituted with wild-type Gag-Pol^HIV or FKBP12-Gag-Pol^HIV derived from HIV and encapsulated a Cas9 protein fused with an FRB domain (hereinafter, called “FRB-Cas9 protein” in some cases).
Subsequently, FKBP12-Gag-Pol^HIV and the HA-tagged FRB-Cas9 protein in each of the above VLPs were quantified by Western blotting.

| SMILES | genome editing efficiency (proportion of GFP-positive cells) [1] | encapsulation of Cas9 in VLPs on addition of AP21967 [2] | encapsulation of Cas9 in VLPs on addition of AP21967 (DMD gene) | cleavage of Gag protein and degradation of Cas9 protein in VLPs (HIV protease) |
| --- | --- | --- | --- | --- |
| CO[C@H]1[C@@H](O)[C@H](C)C[C@H](C)/C=C/C=C/C=C(\C)[C@@H](c2c[nH]c3c(C)cccc23)C[C@@H]2CC[C@@H](C)[C@@](O)(O2)C(=O)C(=O)N2CCCC[C@H]2C(=O)O[C@H]([C@H](C)C[C@@H]2CC[C@@H](O)[C@H](OC)C2)C[C@H](O)[C@H](C)/C=C(\C)[C@H]1O [AP21967, C-16-(S)-7-methylindole rapamycin] | increases depending on the AP21967 concentration | more efficiently encapsulated | more efficiently encapsulated |  |
| CC(C)CN(C[C@@H](O)[C@H](Cc1ccccc1)NC(=O)O[C@H]1CO[C@H]2OCC[C@H]21)S(=O)(=O)c1ccc(N)cc1 [Darunavir] |  |  |  | inhibited |
